What all share (experiment): NCI anticancer screen, dose series, 48 h
Assay [1] deals with HL-60(TB) leukemia.
The subject of assay [2] is HCC-2998 colon.
The subject of assay [3] is LOX IMVI melanoma.
Assay [4] deals with HOP-62 NSCLC.
The test system of assay [5] is NCI-H460 lung.
For assay [6], the system named is OVCAR-8 ovarian.
Assay [7] relates to 786-0 renal.
For assay [8], the system named is MDA-MB-231 breast.
In assay [9] the test system is T-47D breast.
Assay [10] deals with MDA-N.
In assay [11] the test system is DU-145 prostate.

For 16 compounds, TGI results are on record in PubChem BioAssay (NCI).

Structures are written as SMILES.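 The compound was tested at five concentrations on cells cultured in 96-well plates, with a 48-hour exposure period. TGI denotes the concentration required for complete inhibition of growth.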

For `COC(=O)[C@]1(c2ccc(N(C)C)cc2OC)C[C@@H]2CCCN(CCc3c1[nH]c1ccccc31)C2`, the TGI is 27.3 µM in assay [1]; 29.8 µM in assay [2]; above 62.3 µM in [3]; above 84.9 µM in [4]; 33.7 µM in assay [5]; 57.9 µM in assay [6].
Consider `CNC(=O)SCC(NC(=O)CCC(N)C(=O)O)C(=O)NCC(=O)O` (stereo not drawn), for which the TGI in [1] is above 31.6 µM; in [2], above 100 µM; in [3] it was above 100 µM; in [4] it was above 100 µM; in assay [5], above 100 µM; in assay [6], above 100 µM.
As to `COc1cc(C2C3=C(CCCC3=O)N(c3ccc(C)cc3)C3=C2C(=O)CCC3)c([N+](=O)[O-])cc1OC`, the TGI in [1], in assay [2], in [3], in [7] and in assay [5] was above 100 µM in each case.
In the case of `CCCCCCCCP(=O)(O)OP(=O)(O)OCC1OC(n2ccc(N)nc2=O)C(O)C1O` (stereo not drawn), the TGI in [1], in assay [2], in assay [3], in [8], in assay [4] and in assay [9] was above 100 µM each time. Besides, the TGI in assay [7], in assay [5], in [6] and in assay [10] was above 100 µM in each case.
As to `C=CC(C)C1(CCCOCc2ccccc2)C(=S)N2CCC3(CC24CCCC14)OCCO3` (stereo not drawn), the TGI in assay [1] is 5.2 µM; in assay [2], above 100 µM; in assay [3], above 100 µM; in assay [5] it was above 100 µM; in assay [6] it was above 100 µM.
In the case of `O=C1CC(=O)NC(=NN2C(=O)CSC2C(=O)c2ccco2)N1` (stereo not drawn), the TGI in assay [2], in assay [8], in assay [4], in assay [9], in assay [7] and in [5] was above 100 µM throughout. In addition, the TGI in assay [11], in assay [6] and in assay [10] was above 100 µM in each case.
Take `NCCCNOCCCN`: the TGI in assay [2], in assay [8], in [4], in [9], in assay [7] and in assay [5] was above 100 µM throughout. Also, the TGI in [11], in [6] and in [10] was above 100 µM each time.
Consider `CCSc1nc(=S)n(-c2ccccc2)c(C)c1C(C)=O`, for which the TGI in assay [1], in assay [2], in [3], in assay [8], in assay [4] and in assay [9] was above 100 µM throughout. The TGI in [7], in [5], in assay [11] and in [6] was above 100 µM each time.
With `CN(C)CCNC(=O)c1cccc2nc3c(C(=O)NCCN(C)C)cccc3nc12`, the TGI in assay [1] was determined as 3.96 µM; in [2], 4.12 µM; in assay [3] it was 1.49 µM; in [8] it was 3.4 µM; in [4], 5.12 µM; in assay [9], 34.5 µM. Also, the TGI in assay [7] is 9.88 µM; in assay [5] it was 7.91 µM; in assay [11], 12.8 µM; in [6], 4.67 µM.
In the case of `COC(=O)c1c2c(cc3c1CC1(Cc4cc5c(c(C(C)=O)c4C1)CCCC5)C3)CCCC2` (stereo not drawn), the TGI in [1] is 46.3 µM; in assay [2], above 100 µM; in assay [3], above 100 µM; in assay [8], above 100 µM; in [4], above 100 µM; in assay [9], above 100 µM. For the same compound, the TGI in assay [7], in assay [6] and in assay [10] was above 100 µM in each case.
For the compound `S=c1nc(N/N=C/c2cccs2)c2cn[nH]c2[nH]1`, the TGI is above 100 µM in assay [1]; 27.8 µM in assay [2]; 74.6 µM in [3]; above 100 µM in assay [8]; 69 µM in assay [4]; above 100 µM in [9]. In addition, the TGI in assay [7] was above 100 µM; in assay [5], 13.1 µM; in assay [11] it was above 100 µM; in [6] it was above 100 µM.
Regarding `CCOc1ccc(C(C)c2cc3c(cc2OC)OCO3)cc1` (stereo not drawn), the TGI is 12.1 µM in assay [2]; above 100 µM in [3]; 23.1 µM in assay [4]; above 100 µM in [5]; 9.59 µM in [6].
Turning to `CN(CCCNC(=O)c1nn(C)c2c1Cc1ccccc1-2)CCCNC(=O)c1nn(C)c2c1Cc1ccccc1-2`, the TGI in assay [1] is 10.8 µM; in [2] it was 23.5 µM; in [3] it was 21.1 µM; in [8] it was 36.1 µM; in assay [4], 26.8 µM; in assay [9], 61.8 µM. For the same compound, the TGI in assay [7] is 24.5 µM; in assay [5], 37.6 µM; in assay [11], 32.4 µM; in assay [6] it was 46 µM.
`COC(=O)C1=C(O)CCCC(C2CCCCC(=O)C2C(=O)OC)=C1` (stereo not drawn): the TGI in assay [2] is 91.6 µM; in [3], above 100 µM; in assay [8], above 100 µM; in [9], above 100 µM; in [7], above 100 µM; in assay [5], 39.6 µM. The TGI in assay [11], in assay [6] and in assay [10] was above 100 µM throughout.
In the case of `COc1cc2c(cc1Oc1c(Oc3c(O)c(OC)cc4c3C(CC(C)C)N(C)CC4)c(OC)cc3c1C(CC(C)C)N(C)CC3)C(CC(C)C)N(C)CC2` (stereo not drawn), the TGI in assay [1] amounted to 8.16 µM; in assay [2], 5.17 µM; in assay [3], 5.52 µM; in [4], 3.76 µM; in assay [5], 1.69 µM; in [6], 8.24 µM.
Consider `CN(C)CCOc1ccc(-c2c(Oc3ccccc3)c(=O)oc3ccccc23)cc1`, for which the TGI in assay [2] was 20.8 µM; in assay [3], 25.9 µM; in assay [8] it was 18.8 µM; in assay [9], 44.1 µM; in [7], 20.5 µM; in assay [5], 29 µM. Also, the TGI came out at 29.3 µM in [11], 29.6 µM in assay [6] and 4.7 µM in assay [10].
